{
  "source": "patent US10285994B2",
  "about": "“Method of preventing or treating osteoporosis by neddylation inhibitor” (Chang Gung University, priority 2017, dated 2019)",
  "key": {"NFATc-1": {"test_system": "NFATc-1", "assay": "Western blot, sRANKL-induced NFATc-1 expression in RAW264.7 cells", "assay_type": "cell-based, mouse", "settings": "RAW264.7, 30 min pre-treatment, sRANKL 50 ng/ml, FIG. 3C-3D", "description": "FIGS. 3A-3D are data collected from Western blot analysis that respectively depict the expression of specified protein extracted from the RAW264.7 cells, which are pre-treated with specified concentrations of MLN4924 for 30 minutes followed by the stimulation of sRANKL (50 ng/ml) according to example 2 of the present disclosure. FIG. 3A: the time course effect of MLN4924 on the phosphorylations of ERK (pERK), P38 (pP38) and JNK (pJNK). FIG. 3B: the dose effect of MLN4924 on the phosphorylations of ERK (pERK), P38 (pP38) and JNK (pJNK). FIG. 3C: the time course effect of MLN4924 on the expression of NFATc-1. FIG. 3D: the dose effect of MLN4924 on the expression of NFATc-1. Mock: untreated control; R: sRANKL; M: MLN4924.\nThe RAW264.7 cells were starved with serum-free medium for six hours and then treated with the specified treatments. At indicated time points, the cells were washed with cold phosphate-buffered saline (PBS) and lysed in RIPA buffer containing complete protease inhibitor cocktail (Roche). The cell lysates were separated by SDS-PAGE followed by Western blotting with the indicated antibodies, including NEDD8, APPBP1, UBA3.\nIn addition, ectopic expression of NFATc-1 in the pre-osteoclasts rendered the pre-osteoclast differentiated to osteoclasts in the absence of RANKL. […]"}, "[1]": {"test_system": "ovariectomized (OVX) mice", "assay": "Serum CTX-1 ELISA in OVX + sRANKL mice", "assay_type": "in vivo, mouse", "settings": "10 mg/kg i.p. once daily for 2 weeks, FIG. 6E", "description": "FIGS. 6A-6E are the data depicting the mouse model of ovariectomy-induced osteoporosis, in which the ovariectomized (OVX) mice are respectively treated with sRANKL (1 mg/Kg) in the absence or presence of MLN4924 (10 mg/Kg) according to example 5.1 of the present disclosure. FIG. 6A: Micro computed-tomography (micro-CT) three-dimensional images of the distal femurs of mice respectively treated with the indicated treatments, in which the left panels represent transaxial plane, and the right panels represent coronal plane. FIGS. 6B-6D: micro-CT measurement of trabecular bone parameters, including bone volume/total volume (FIG. 6B), trabecular number (FIG. 6C), and trabecular space (FIG. 6D). […] Values are expressed as mean±SD, N=6 per group. *p<0.05; **p<0.01.\nAll experimental procedures were approved by the Institutional Animal Care and Use Committee of the Chang Gung Memorial Hospital at Chiayi and complied with the Guideline for the Care and Use of Laboratory Animals available through the National Academy of Sciences (IACUC number: 2013100102 and 2015103001). […] Serum levels of cross linked C-telopeptide of type I collagen (CTX-1) (CEA665Mu) was measured by specific ELISA kit (USCN life science incorporation, Wuhan, Hubei, China).\nSince CTX-1 serve as the biomarker for bone resorption, the level of CTX-1 in the serum of mice receiving specified treatments were then determined."}, "cathepsin K": {"test_system": "cathepsin K", "assay": "Cathepsin K activity fluorometric assay, RAW264.7 cells", "assay_type": "cell-based, mouse", "settings": "sRANKL-activated RAW264.7 cells, 7 days, FIG. 2C", "description": "FIGS. 2A-2D are data collected from RAW264.7 cells respectively incubated in the medium containing sRANKL (50 ng/ml) and specified concentrations of MLN4924 for 7 days according to example 1.2 of the present disclosure. FIG. 2A: the photographs of TRAP staining depicting the differentiation of osteoclasts from RAW264.7 cells. FIG. 2B: after the differentiation of osteoclasts in Corning Osteo Surface, the cells were removed, and the resorbed areas for confirming osteoclast activity were analyzed by 1% toluidine blue staining. FIG. 2C: the culture medium is subject to Biovision Cathepsin K Activity Fluorometric Assay Kit for the analysis of cathepsin K activity. FIG. 2D: the effect of effective doses of MLN4924 on the viability of RAW264.7 cells is evaluated by MTT assay. Scale bar represents 100 μm. Data are expressed as mean±SD where *p<0.05.\nThe pre-osteoclasts and RAW264.7 cells were seeded into Corning Osteo Surface Assay 96-wells plate (Corning, Kennebunk, Me.). Twenty-four hours later, the cells were treated with sRANKL (50 ng/ml) and specified concentrations of MLN4924 for 7 days. The cells were then harvested so as to evaluate the cathepsin K activity by use of Biovision Cathepsin K Activity Fluorometric Assay Kit (Biovision, Milpitas, Calif.). The Corning Osteo surface was stained with 1% toluidine blue for 24 hours and washed with deionized water twice. […]"}, "MC3T3-E1 cells": {"test_system": "MC3T3-E1 cells", "assay": "Osteoblast survival, crystal violet staining of MC3T3-E1 cells", "assay_type": "cell-based, mouse", "settings": "MC3T3-E1, osteoblast differentiation medium, 21 days, FIG. 4A", "description": "FIGS. 4A-4B respectively depict the osteogenesis of mouse pre-osteoblast cell line MC3T3-E1 cells incubated in the differentiation medium containing specified concentrations of MLN4924 for 21 days according to example 3 of the present disclosure. FIG. 4A: the growth of MC3T3-E1 cells during osteogenesis is analyzed by crystal violet staining. FIG. 4B: the osteogenesis of MC3T3-E1 cells on day 21 is analyzed by measuring Alizarin Red S stain. Diff: osteoblast differentiation medium. MLN: MLN4924.\nThe mouse pre-osteoblast cell line MC3T3-E1 cells were cultured in osteoblast differentiation medium with or without MLN4924 for 21 days."}},
  "data": [
    {"smiles": "NS(=O)(=O)OC[C@@H]1C[C@@H](n2ccc3c(N[C@H]4CCc5ccccc54)ncnc32)C[C@@H]1O", "note": "[MLN4924, (1S,2S,4R)-4-(4-((1S)-2,3-Dihydro-1H-inden-1-ylamino)-7H-pyrrolo(2,3-d)pyrimidin-7-yl)-2-hydroxycyclopentyl) methyl sulphamate]", "values": [
      {"measurement": "expression of NFATc-1 induced by sRANKL", "setting": "NFATc-1", "result": "significant suppressed"},
      {"measurement": "serum CTX-1 level", "setting": "[1]", "result": "significantly rescued the OVX+sRANKL-stimulated serum CTX-1 level upregulation"},
      {"measurement": "osteolytic enzyme cathepsin K activity of osteoclasts", "setting": "cathepsin K", "result": "significantly inhibited"},
      {"measurement": "survival of osteoblasts (crystal violet)", "setting": "MC3T3-E1 cells", "result": "neither the survival of osteoblasts (FIG. 4A), nor the differentiation of osteoblasts (FIG. 4B) was affected"}
    ]}
  ]
}
